Results reported in PubChem BioAssay (NCI).
Several values for one entry are separate records, joined by “and”; a condition that tells them apart may be missing. Identical values can stand only once.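 Five compound concentrations were applied to cells in 96-well plates for 48 hours; endpoints were derived by simple linear interpolation of the resulting dose-response curve. Abbreviation: GI50, concentration required for 50% inhibition of growth. At the TGI there is no net growth.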

Tests used:
Experiment in all cases: DTP human tumour cell line panel, 48 h
NCI-H460 lung = system: NCI-H460 lung
RPMI-8226 leukemia = system: RPMI-8226 leukemia
HCT-15 colon = system: HCT-15 colon
OVCAR-5 ovarian = system: OVCAR-5 ovarian
SF-295 CNS = system: SF-295 CNS
SN12C renal = system: SN12C renal
HCT-116 colon = system: HCT-116 colon
SF-539 CNS = system: SF-539 CNS
PC-3 prostate = system: PC-3 prostate
KM12 colon = system: KM12 colon
A498 renal = system: A498 renal
IGROV1 ovarian = system: IGROV1 ovarian
M14 melanoma = system: M14 melanoma
HCC-2998 colon = system: HCC-2998 colon
K-562 leukemia = system: K-562 leukemia

| Structure (SMILES) | TGI (NCI-H460 lung) | TGI (RPMI-8226 leukemia) | TGI (HCT-15 colon) | TGI (OVCAR-5 ovarian) | TGI (SF-295 CNS) | TGI (SN12C renal) [µM] | TGI (HCT-116 colon) | TGI (SF-539 CNS) | TGI (PC-3 prostate) | TGI (KM12 colon) | TGI (A498 renal) | TGI (IGROV1 ovarian) | TGI (M14 melanoma) | TGI (HCC-2998 colon) | TGI (K-562 leukemia) | GI50 (HCT-15 colon) [µM] | GI50 (OVCAR-5 ovarian) [µM] | GI50 (A498 renal) [µM] | GI50 (IGROV1 ovarian) [µM] |
| --- | --- | --- | --- | --- | --- | --- | --- | --- | --- | --- | --- | --- | --- | --- | --- | --- | --- | --- | --- |
| COc1cc(/C=C2/SC(c3ccccc3)N(c3ccc(Cl)cc3)C2=O)cc(OC)c1OC (centres undefined) | > 100 µM | > 100 µM | > 100 µM | > 100 µM | > 100 µM | > 100 | > 100 µM | > 100 µM | > 100 µM | > 100 µM | > 100 µM | > 100 µM | > 63.3 µM | > 100 µM | > 100 µM | – | – | – | – |
| Cn1cc2c(=O)n3ncn(-c4ccc(Br)cc4)c3nc2n1 | > 100 µM | > 100 µM | > 100 µM | > 100 µM | > 100 µM | > 100 | > 100 µM | > 100 µM | > 100 µM | > 100 µM | > 100 µM | > 100 µM | > 100 µM | > 100 µM | > 100 µM | – | – | – | – |
| Cc1[nH]n(-c2nc3c(c(=O)[nH]2)CCC3)c(=O)c1CCO | > 100 µM | > 100 µM | > 100 µM | > 100 µM | > 100 µM | > 100 | > 100 µM | > 100 µM | > 100 µM | > 100 µM | > 100 µM | > 100 µM | > 100 µM | > 100 µM | > 100 µM | – | – | – | – |
| CC1=CCC[C@@](C)(O)[C@@H]2C[C@H]3C(CSc4ccccc4)C(=O)O[C@H]3[C@@H](O2)[C@H](C)CCC1 (some centres undefined) | 20.4 µM | 84 µM | 67.9 µM | 30.7 µM | 25.3 µM | > 100 | > 100 µM | 30.9 µM | 22.2 µM | 22.6 µM | 45 µM | 85.1 µM | 26.9 µM | 30.3 µM | > 100 µM | – | – | – | – |
| O=[N+]([O-])/C(Cl)=C(\Nc1ccccc1)C(Cl)=C(Cl)Cl | > 100 µM | 78.9 µM | 66.6 µM | > 100 µM | 94 µM | > 100 | > 100 µM | 47.4 µM | > 100 µM | 32 µM | 65.4 µM | 79 µM | 58.4 µM | 94.4 µM | 68.6 µM | – | – | – | – |
| CC(C)C[C@H](NC(=O)CCc1ccccc1)B(O)O | 52.9 µM | 6.11 µM | 38.1 µM | 40.2 µM | 34.5 µM | 61.5 | 18.6 µM | 15.4 µM | > 100 µM | 32.8 µM | 14 µM | > 100 µM | 24.7 µM | 27 µM | 62.7 µM | – | – | – | – |
| COc1ccc2c(c1)N(C(C)=O)CN1C(=O)CCC21 (centres undefined) | > 100 µM | > 100 µM | > 100 µM | > 100 µM | > 100 µM | > 100 | > 100 µM | > 100 µM | > 100 µM | > 100 µM | > 100 µM | > 100 µM | > 100 µM | > 100 µM | > 100 µM | – | – | – | – |
| c1ccc2[nH]c3[nH]c4[nH]c5ccccc5[nH]c4[nH]c3[nH]c2c1 | > 100 µM | > 100 µM | > 100 µM | > 100 µM | > 100 µM | > 100 | > 100 µM | > 100 µM | > 100 µM | > 100 µM | > 100 µM | > 100 µM | > 100 µM | > 100 µM | > 100 µM | – | – | – | – |
| C/C(=N\NS(=O)(=O)c1ccc(C)cc1)C(CN(C)C)C(c1ccccc1)c1c(O)c2ccccc2oc1=O (centres undefined) | > 100 µM | > 100 µM | > 100 µM | > 100 µM | > 100 µM | > 100 | > 100 µM | > 100 µM | > 100 µM | > 100 µM | > 100 µM | > 100 µM | > 100 µM | > 100 µM | > 100 µM | – | – | – | – |
| COc1ccc2nc3cc([N+](=O)[O-])ccc3c(NNc3ccc(Cl)cc3)c2c1 | > 59 µM | 78.7 µM | > 100 µM | > 100 µM | > 100 µM | 98 | > 55.7 µM | 97.5 µM | > 77.5 µM | > 100 µM | 0.221 µM | 45.1 µM | > 92.5 µM | 60.6 µM | > 68.3 µM | – | – | – | – |
| CC(=O)NCC1(c2ccccc2)CCN(CC2COc3ccccc3O2)CC1 (centres undefined) | > 100 µM | > 100 µM | > 100 µM | > 100 µM | > 100 µM | > 100 | > 100 µM | > 100 µM | > 100 µM | > 100 µM | > 100 µM | > 100 µM | > 100 µM | > 100 µM | > 100 µM | – | – | – | – |
| CCC(CC)C(=O)OC[n+]1cccc(-c2c(COC(=O)NC(C)C)c(COC(=O)NC(C)C)c3n2CCC3)c1 | > 100 µM | > 100 µM | > 100 µM | > 100 µM | > 100 µM | > 100 | > 100 µM | > 100 µM | > 100 µM | > 100 µM | > 100 µM | > 100 µM | > 100 µM | > 100 µM | > 100 µM | – | – | – | – |
| CN(C)CCOC1(Cc2ccc(Cl)cc2Cl)CCC(C(C)(C)C)CC1 (centres undefined) | 3.18 µM and 2.66 µM | 4.92 µM and 5.42 µM | 3.44 µM and 3.06 µM | 5.54 µM and 3.55 µM | 3.2 µM and 3.41 µM | 3.32 | 3.13 µM and 3.45 µM | 14.5 µM and 3.46 µM | 3.68 µM and 4.1 µM | 3.27 µM and 3.36 µM | 5.18 µM and 3.95 µM | 6.33 µM and 3.25 µM | 3.25 µM and 3.11 µM | 3.37 µM and 3.23 µM | 3.77 µM and 3.94 µM | 1.57 | 2.09 | 2.07 | 2.38 |
| CC(=O)O[C@H]1C(=O)[C@@]2(C)[C@H]([C@H](OC(=O)c3ccc([N+](=O)[O-])cc3)[C@]3(O)C[C@H](OC(=O)[C@H](O)[C@@H](NC(=O)c4ccccc4)c4ccccc4)C(C)=C1C3(C)C)[C@]1(OC(C)=O)CO[C@@H]1C[C@@H]2O | > 25 µM | > 25 µM | > 25 µM | > 25 µM | > 25 µM | > 25 | > 25 µM | > 25 µM | > 25 µM | > 25 µM | > 25 µM | > 25 µM | > 25 µM | > 25 µM | > 25 µM | – | – | – | – |
| O=c1oc2cc(O)ccc2c(O)c1C(c1ccccn1)c1c(O)c2ccc(O)cc2oc1=O | > 100 µM | > 100 µM | > 100 µM | > 100 µM | > 100 µM | > 100 | > 100 µM | > 100 µM | > 100 µM | > 100 µM | > 100 µM | > 100 µM | > 100 µM | > 100 µM | > 100 µM | – | – | – | – |
| CC(NC(=O)/C(C#N)=C/c1ccc2[nH]ccc2c1)c1ccccc1 (centres undefined) | 34.9 µM | > 73.1 µM | 27.6 µM | 37.3 µM | 35.4 µM | 35 | 28.1 µM | 34.9 µM | 39.3 µM | 32.2 µM | 32.1 µM | 33.1 µM | 37.2 µM | 34 µM | > 77.9 µM | – | – | – | – |
| Cc1cnc2[nH]c(-c3ccc(F)cc3)cc(=O)c2c1 | > 100 µM | > 73.3 µM | > 100 µM | > 100 µM | 99 µM | > 100 | > 100 µM | > 100 µM | > 100 µM | > 100 µM | 81.3 µM | > 100 µM | > 100 µM | > 100 µM | 47 µM | – | – | – | – |
| CC1(C)[C@@H]2C[C@H]1C(Cc1ccc(C[C@H]3c4cc(-c5ccccn5)ncc4[C@H]4C[C@@H]3C4(C)C)cc1)c1cc(-c3ccccn3)ncc12 (some centres undefined) | 13.8 µM | 70 µM | > 100 µM | > 100 µM | > 100 µM | 23.3 | 18.3 µM | 7.13 µM | 22.8 µM | 38.4 µM | 7.99 µM | > 100 µM | > 100 µM | 88.2 µM | > 100 µM | – | – | – | – |
| C#CCCOC1(OC)N=NC(C)(C)O1 (centres undefined) | > 100 µM | > 100 µM | > 100 µM | > 100 µM | > 100 µM | > 100 | > 100 µM | > 100 µM | > 100 µM | > 100 µM | > 100 µM | > 100 µM | > 100 µM | > 100 µM | > 100 µM | – | – | – | – |
| O=c1cc(NCC2CCCCC2)[nH]c(=O)[nH]1 | > 100 µM | > 100 µM | > 100 µM | > 100 µM | > 100 µM | > 100 | > 100 µM | > 100 µM | > 100 µM | > 100 µM | > 100 µM | > 100 µM | > 100 µM | > 100 µM | > 100 µM | – | – | – | – |
| COc1ccc(OC)c(NC(=O)C(=O)Nn2c(=S)[nH]c3ccccc3c2=O)c1 | > 100 µM | > 100 µM | > 100 µM | > 100 µM | > 100 µM | > 100 | > 100 µM | > 100 µM | > 100 µM | > 100 µM | > 100 µM | > 100 µM | > 100 µM | > 100 µM | > 100 µM | – | – | – | – |
| Cc1cc(NC(=O)C(=O)Cc2cnc3ccccc3n2)c(S(=O)(=O)O)cc1Cl | > 100 µM | > 100 µM | > 100 µM | > 100 µM | > 100 µM | > 100 | > 100 µM | > 100 µM | > 100 µM | > 100 µM | > 100 µM | > 100 µM | > 100 µM | > 100 µM | > 100 µM | – | – | – | – |
